Our source for the Ki values is patent publication US7981912B2, “Indole acetic acids exhibiting CRTH2 receptor antagonism and uses thereof” (Wyeth LLC, priority 2004, dated 2011).

In the test the target is T1, human CRTH2 (Homo sapiens, UniProt Q9Y5Y4).
T1 sequence (Q9Y5Y4 1-395): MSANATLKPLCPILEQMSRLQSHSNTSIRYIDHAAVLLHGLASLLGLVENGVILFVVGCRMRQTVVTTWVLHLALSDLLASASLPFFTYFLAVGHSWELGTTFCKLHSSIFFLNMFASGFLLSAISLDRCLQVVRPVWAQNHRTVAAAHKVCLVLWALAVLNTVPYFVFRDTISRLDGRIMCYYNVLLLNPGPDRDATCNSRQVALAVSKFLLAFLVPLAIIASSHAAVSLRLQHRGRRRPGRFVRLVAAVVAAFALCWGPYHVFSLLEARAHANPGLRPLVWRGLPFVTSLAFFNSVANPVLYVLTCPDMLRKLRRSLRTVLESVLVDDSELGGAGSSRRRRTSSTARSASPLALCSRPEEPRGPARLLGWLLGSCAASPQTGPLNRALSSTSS
The test is described as follows: CRTH-2 binding assay (scintillation proximity assay, inhibition of 3H-PGD2 binding). Further details: expressed in transfected cells; host or cells: HEK 293EBNA-hCRTH2 (membrane preparation). To be noted: inhibition of 3H-PGD2 (3.6 nM) binding to HEK 293EBNA-hCRTH2 membranes; Ki calculated from IC50. As for the experimental part:
A CRTH2 binding assay was developed to measure the ability of compounds to inhibit the binding of PGD2 to human CRTH2 using a scintillation proximity assay.
Membranes containing hCRTH2 receptors were prepared from HEK 293EBNA-hCRTH2 cells (a HEK 293EBNA cell line stably expressing human CRTH2). The cells were grown to confluency, harvested and washed with PBS. The cells were resuspended in 10 mM Hepes pH 7.4, 1 mM EDTA and protease inhibitors and incubated for 30 min on ice. The cells were homogenized and centrifuged for 10 min at 1000×g. The supernate was centrifuged for 30 min at 100,000×g and the membrane pellet was then resusupended in 10 mM Hepes pH 7.4 and 1 mM EDTA. The protein concentration of the membrane preparation was determined by Bradford assay (Bio-Rad).
The ability of compounds to inhibit the interaction of PGD2 to human CRTH2 was determined at seven compound concentrations. Compounds were serially diluted in DMSO then diluted into CRTH2 buffer without glycerol (10 mM Hepes pH 7.4, 1 mM EDTA, 10 mM MnCl2) to six times the final desired concentration. 20 μL of the diluted compounds were transferred into non-surface binding 96 well plates (Corning). Each concentration was done in triplicate. In addition to test compounds, each plate contained 12 control wells. Six of these wells contained 20 μL of CRTH2 buffer without glycerol. These wells were used to measure total binding. Six wells contained 20 μL of CRTH2 buffer without glycerol plus 1.5 mM indomethacin. These wells were used to measure non-specific binding. Next, HEK 293EBNA-hCRTH2 membranes were resuspended in CRTH2 buffer with glycerol (10 mM Hepes pH 7.4, 1 mM EDTA, 10 mM MnCl2, 25% glycerol) so that the final concentration was approximately 20 μg protein/100 μL. Polylysine coated yttrium silicate SPA beads (Amershamn) were added to the membrane mix to a concentration of 0.4 mg/100 μL and finally ^3H-PGD2 was added to the membrane/SPA bead mix to 3.6 nM. 100 μL of the membrane/SPA bead/^3H-PGD2 mix was added to each well of the non-surface binding plates containing the diluted compound plus controls. The plates were incubated for 2 hours at room temperature with shaking and then the plates were counted on a Microbeta scintillation counter (Perkin Elmer) for 1 min per well.
IC50 values were determined from the experimental results by nonlinear regression using Prism 4.0 software. The IC50 values were then used in conjunction with the […] for hCRTH2 and the ^3H-PGD2 concentration used in the experiment to calculate the Ki for each compound.

Some results are limits rather than exact numbers.

As to `Cc1c(C2NS(=O)(=O)c3ccccc32)c2cc(F)ccc2n1CC(=O)O` (stereo not shown) [Example 10, [3-(1,1-Dioxo-2,3-dihydro-1H-1λ^6-benzo[d]isothiazol-3-yl)-5-fluoro-2-methyl-indol-1-yl]-acetic acid], the inhibition constant (Ki) (commonly the dissociation constant of the complex between target and ligand, obtained from inhibition or displacement) was below 1000 nM.

Turning to `CC(C)CCN1C(c2cn(CC(=O)O)c3ccccc23)c2ccccc2S1(=O)=O` (stereo not shown) [Example 29, {3-[2-(3-Methyl-butyl)-1,1-dioxo-2,3-dihydro-1H-1λ^6-benzo[d]isothiazol-3-yl]-indol-1-yl}-acetic acid], the Ki is below 10000 nM. For `O=C(O)Cn1cc(C2NS(=O)(=O)c3ccccc32)c2c(Cl)cccc21` (stereo not shown) [Example 11, [4-Chloro-3-(1,1-dioxo-2,3-dihydro-1H-1λ^6-benzo[d]isothiazol-3-yl)-indol-1-yl]-acetic acid], the inhibitory constant (Ki) was below 1000 nM. Under `Cc1c(C2=NN(Cc3ccc(OC(F)(F)F)cc3)S(=O)(=O)c3ccccc32)c2cc(F)ccc2n1CC(=O)O` [Example 84, {3-[2-(4-Trifluoromethoxy-benzyl)-1,1-dioxo-1,2-dihydro-1λ^6-benzo[e][1,2,3]thiadiazin-4-yl]-5-fluoro-2-methyl-indol-1-yl}-acetic acid] stands below 1000 nM; under `Cc1c(C2=NN(Cc3ccccc3)S(=O)(=O)c3ccccc32)c2cc(F)ccc2n1CC(=O)O` [Example 75, [3-(2-Benzyl-1,1-dioxo-1,2-dihydro-1λ^6-benzo[e][1,2,3]thiadiazin-4-yl)-5-fluoro-2-methyl-indol-1-yl]-acetic acid], below 1000 nM; under `Cc1c(C2=NN(C3CCCCC3)S(=O)(=O)c3ccccc32)c2cc(F)ccc2n1CC(=O)O` [Example 94, [3-(2-Cyclohexyl-1,1-dioxo-1,2-dihydro-1λ^6-benzo[e][1,2,3]thiadiazin-4-yl)-5-fluoro-2-methyl-indol-1-yl]-acetic acid], below 100 nM. `Cc1c(C2NS(=O)(=O)c3ccccc32)c2ccccc2n1CC(=O)O` (stereo not shown) [Example 3, [3-(1,1-Dioxo-2,3-dihydro-1H-1λ^6-benzo[d]isothiazol-3-yl)-2-methyl-indol-1-yl]-acetic acid]: the inhibition constant Ki was below 10000 nM. Under `COc1ccc2c(c1)c(C1NS(=O)(=O)c3ccccc31)cn2CC(=O)O` (stereo not shown) [Example 4, [3-(1,1-Dioxo-2,3-dihydro-1H-1λ^6-benzo[d]isothiazol-3-yl)-5-methoxy-indol-1-yl]-acetic acid] stands below 10000 nM. As for `Cc1noc(C)c1CN1C(=O)c2ccccc2C1c1cn(CC(=O)O)c2ccccc12` (stereo not shown) [Example 22, {3-[2-(3,5-Dimethyl-isoxazol-4-ylmethyl)-3-oxo-2,3-dihydro-1H-isoindol-1-yl]-indol-1-yl}-acetic acid], the inhibitory constant (Ki) was below 1000 nM.

Take `Cc1c(C2=NN(Cc3cccc(Cl)c3)S(=O)(=O)c3ccccc32)c2cc(F)ccc2n1CC(=O)O` [Example 77, {3-[2-(3-Chloro-benzyl)-1,1-dioxo-1,2-dihydro-1λ^6-benzo[e][1,2,3]thiadiazrn-4-yl]-5-fluoro-2-methyl-indol-1-yl}-acetic acid]: the inhibitory constant (Ki) is below 1000 nM.

On to `COc1ccc(CN2N=C(c3c(C)n(CC(=O)O)c4ccc(F)cc34)c3ccccc3S2(=O)=O)cc1` [Example 80, {3-[2-(4-Methoxy-benzyl)-1,1-dioxo-1,2-dihydro-1λ^6-benzo[e][1,2,3]thiadiazin-4-yl]-5-fluoro-2-methyl-indol-1-yl}-acetic acid], for which the Ki is below 100 nM. Under `O=C(O)Cn1cc(C2c3ccccc3S(=O)(=O)N2Cc2ccccc2-c2ccccc2)c2ccccc21` (stereo not shown) [Example 32, [3-(2-Biphenyl-2-ylmethyl-1,1-dioxo-2,3-dihydro-1H-1λ^6-benzo[d]isothiazol-3-yl)-indol-1-yl]-acetic acid] stands below 1000 nM; under `Cc1c(C2c3ccccc3S(=O)(=O)N2CCOc2ccc(Cl)cc2)c2ccccc2n1CC(=O)O` (stereo not shown) [Example 39, (3-{2-[2-(4-Chloro-phenoxy)-ethyl]-1,1-dioxo-2,3-dihydro-1H-1λ^6-benzo[d]isothiazol-3-yl}-2-methyl-indol-1-yl)-acetic acid], below 100 nM.
